Results taken from patent US20080249061A1, “Photostable Pharmaceutical Composition Containing Brivudine for the Treatment of Herpetic Keratitis” (priority 2005, published 2008).
Values joined by “and” are separate entries in the source; they are usually repeats but may differ in a detail not shown here. Equal entries are not always repeated.

Key:
clinical VZV strains = conditions: 13 clinical VZV strains; cited from earlier work
clinical HSV-1 strains = conditions: panel of 23 clinical HSV-1 strains; cited from earlier work
[1] = additional studies on drug product-tolerability; type: in vivo
Source text: Formulations based on film formers are commonly used as artificial tear drops. They are approved since decades without any general or special adverse effects published.

[2] = Photostability test (SUNTEST CPS+, 320-800 nm); type: physicochemical; conditions: after irradiation of one hour, no film former contained
Description: The photo stability tests themselves have been performed using a SUNTEST CPS+ instrument of the company Atlas. The applied irradiation energy is indicated below: • Irradiation energy (time): 1.3 J/cm^2 (10 min), 2.6 J/cm^2 (20 min), 4.0 J/cm^2 (30 min), 8.9 J/cm^2 (67 min), 26.7 J/cm^2 (201 min) • Wave length range: 320-800 nm

[3] = intra ocular bioavailability study in rabbit
[4] = tested on: clinical isolates (HSV-1); conditions: panel of 20 clinical isolates, two similar assays; cited from earlier work

| Structure (SMILES) | mean IC50 (clinical VZV strains) [µg/mL] | mean IC50 (clinical HSV-1 strains) [µg/mL] | influence of brivudine on the drug product-tolerability ([1]; formulations based on film formers) | systemic absorption in the blood ([1]; in vivo) | time brivudine remains in the ocular region ([1]; ocular region, other: ophthalmic (topical ocular)) | starting amount of brivudine recovered [2] [%] | active in blood [3] | presence of the active substance in the cornea [3] [h] | mean IC50 [4] |
| --- | --- | --- | --- | --- | --- | --- | --- | --- | --- |
| Nc1nc2c(ncn2COCCO)c(=O)[nH]1 [acyclovir] | 0.2 | 0.92 |  |  |  |  |  |  |  |
| O=c1[nH]c(=O)n([C@H]2C[C@H](O)[C@@H](CO)O2)cc1/C=C/Br [brivudine, (E)-5-(2-bromovinyl)-2′-deoxyuridine] | 0.001 | 0.52 | no deterioration of the pharmaceutical properties was observed | without systemic absorption in the blood | more than 2 hours | 33.4 | never found in blood | ≥ 6 |  |
| Nc1nc2c(ncn2CCC(CO)CO)c(=O)[nH]1 [penciclovir] | 0.91 |  |  |  |  |  |  |  | 0.6 µg/mL and 0.8 µg/mL |
